Results taken from patent EP0352652B1, “Use of imexone as an immunosuppressive agent” (BOEHRINGER MANNHEIM GMBH, priority 1988, dated 1990).

Legend:
[1] = tested on: Methylcholanthren-induzierte Fibrosarkomzellinie (MethA); assay: Tumour growth inhibition assay (TGI), spontaneous proliferation of MethA cells, [3H]-thymidine incorporation; type: cell-based, CB6F₁-Mäusen
Experimental: Die Methylcholanthren-induzierte Fibrosarkomzellinie (MethA) wurde aus der eigenen Tumorzellbank erhalten und intraperitoneal in CB6F₁-Mäusen passagiert.
1 x 10⁴ MethA-Zellen werden mit der zu testenden Imexonkonzentration in DMEM-Medium über 48 h inkubiert. 3 h vor Ablauf der Inkubationszeit wird mit [³H]-Thymidin gepulst, geerntet und ausgewertet wie bei Beispiel 2 beschrieben.

Mäusestamm MRL 1pr/1pr = assay: Autoimmune disease model in MRL mice (lymphadenomas, antinuclear autoantibodies), prophylactic and therapeutic treatment; type: in vivo, Maus
Text: B. Synthese von antinukleâren Autoantikörpern. Zur Untersuchung des prophylaktischen Effektes von Imexon auf die Entwicklung dieser Symptome wurden 11 Wochen alte MRL Mäuse einmal täglich intraperitoneal mit den angegebenen Dosierungen Imexon und Cyclophosphamid behandelt. Dokumentiert wurden die Zahl der Lymphadenome und die Konzentration antinukleärer Antikörper. Bei der Untersuchung zur therapeutischen Potenz von Imexon wurden MRL Mäuse, […] jedes Tier mindestens ein Lymphadenom […] an Imexon und Cyclophosphamid behandelt. Die Meßparameter waren wiederum Zahl der Lymphadenome sowie Autoantikö[…].

Walker-Sarkoma 256 = conditions: rats, after application of Imexon; cited from earlier work
[2] = tested on: Leukozyten; Antikörper bildende Milzzellen; conditions: after application of Imexon; cited from earlier work
humane B-Lymphozyten = assay: BCGF-dependent proliferation of human B lymphocytes, [3H]-thymidine incorporation; type: cell-based
Experimental: Die Anreicherung von peripheren humanen B-Zellen und der BCGF-Proliferationsassay wurden wie folgt durchgeführt (vgl. a. Eur. J. Immun. 16, 350 (1986)): Angereicherte humane B-Lymphozyten werden zweimal gewaschen mit komplettiertem RPMI 1640 Medium (Streptomycin/Penicillin, L-Glutamin, 2-Mercaptoethanol, FCS) und auf 3 x 10⁵ Zellen/ml eingestellt. […] dieser Suspension werden jeweils pro Well in Mikrotiterplatten pipettiert. Als Pseudoantigen werden […] einer Lösung von HFCµS-IgG (300 µg/ml) zugegeben und als Wachstumsfaktor 20 µl BCGF (Cellular Products Incorporated) hinzugefügt. Dazu werden 20 µl der zu testenden Verbindung in 10facher Konzentration pipettiert. Die Kulturen werden insgesamt 140 h bei 37°, 5 % CO₂ und 95 % relativen Luftfeuchtigkeit inkubiert. 16 h vor Ablauf der Inkubationszeit wird jede Kultur mit 1 µ Ci einer [³H]-Thymidin-Lösung gepulst. Am Ende des Versuches werden die Zellen mit einem Harvester geerntet und die eingebaute Radioaktivität in einem Flüssigszintillationszähler bestimmt.

Milzzellen = assay: Concanavalin A (ConA)-induced proliferation of murine splenocytes (LTT), [3H]-thymidine incorporation; type: cell-based, CB6F₁-Mäusen; conditions: for LTT (Splenozyten, ConA) ^3H-TdR cpm (n=6) x̄: 0,5 µg/ml ConA
Experimental: Milzzellen (4 x 10⁵) von CB6F₁-Mäusen werden mit 0,5 µg/ml ConA in Mikrotiterplatten (Nunc GmbH, Wiesbaden, FRG) und verschiedenen Konzentrationen von Imexon in 6-fach Ansätzen für insgesamt 48 h inkubiert. 5 h vor Ablauf der Inkubationszeit werden die Kulturen mit [³H]-Thymidin gepulst und anschließend auf Glasfiberfilterplattchen mittels eines Multisample Harvester (Skatron A.S., Lier, Norwegen) geerntet. Die Filterplättchen werden getrocknet, und die Radioaktivität in einem Packard Szintillationsspektrometer bestimmt.

humaner Lymphozyten = assay: Phytohaemagglutinin (PHA)-induced proliferation of human lymphocytes (LTT), [3H]-thymidine incorporation; type: cell-based
Experimental: 1 ml humanes Vollblut wird mit 500 µg PHA-Lösung (500 µg/ml) und 48 ml DMEM-Mediun verdünnt. Jeweils 200 µl dieses Ansatzes werden mit 20 µl der zu testenden Imexonkonzentration in 6-fach-Ansätzen gemischt und 4 Tage inkubiert. Nach Pulsen mit [³H]-Thymidin wird weitere 24 h inkubiert, geerntet und ausgewertet wie bei Beispiel 2 beschrieben.

[3] = relative to suppression of BCGF-induced B-cell proliferation, not or only at these concentrations
[4] = prophylactic, 11-week-old MRL mice, once daily intraperitoneal
[5] = therapeutic, lymphoma-bearing MRL mice (ca. 14 weeks old), once daily
[6] = Homo sapiens, Lymphocyte, 140 h, read-out: BCGF (humane B-Lym-phozyten) %Hemmung

In the case of N=C1NC(=O)N2CC12 (stereo not drawn) [Imexon, 4-Imino-1,3-diazabicyclo-(3.1.0)-hexan-2-on], the “TGI (MethA) ^3H-TdR cpm (n=6) x̄” value ([1]; Imexon 0.1 µg/ml, 48 h) is reported as 31722 cpm, the “TGI (MethA) ^3H-TdR cpm (n=6) x̄” value ([1]; Imexon 0.3 µg/ml, 48 h) is reported as 37593 cpm and the “TGI (MethA) ^3H-TdR cpm (n=6) x̄” value ([1]; Imexon 1 µg/ml, 48 h) is reported as 35475 cpm. The “TGI (MethA) ^3H-TdR cpm (n=6) x̄” value ([1]; Imexon 3 µg/ml, 48 h) was 35473 cpm, the “TGI (MethA) ^3H-TdR cpm (n=6) x̄” value ([1]; Imexon 10 µg/ml, 48 h) was 21913 cpm and the “TGI (MethA) ^3H-TdR cpm (n=6) x̄” value ([1]; Imexon 30 µg/ml, 48 h) was 911 cpm. The “TGI (MethA) ^3H-TdR cpm (n=6) x̄” value ([1]; Imexon 100 µg/ml, 48 h) was 534 cpm, the inhibition at 0.1 µg/mL ([1]; Meth-A, 48 h, Imexon 0.1 µg/ml, read-out: TGI (MethA) %Hemmung) was 7% and the inhibition at 0.3 µg/mL ([1]; Meth-A, 48 h, Imexon 0.3 µg/ml, read-out: TGI (MethA) %Hemmung) was -11%. It also gave an inhibition at 1 µg/mL ([1]; Meth-A, 48 h, Imexon 1 µg/ml, read-out: TGI (MethA) %Hemmung) of -4%, an inhibition at 3 µg/mL ([1]; Meth-A, 48 h, Imexon 3 µg/ml, read-out: TGI (MethA) %Hemmung) of -4% and an inhibition at 10 µg/mL ([1]; Meth-A, 48 h, Imexon 10 µg/ml, ** p < 0.001, read-out: TGI (MethA) %Hemmung) of 35%. For the same compound, the inhibition at 30 µg/mL ([1]; Meth-A, 48 h, Imexon 30 µg/ml, ** p < 0.001, read-out: TGI (MethA) %Hemmung) was 97%, the inhibition at 100 µg/mL ([1]; Meth-A, 48 h, Imexon 100 µg/ml, ** p < 0.001, read-out: TGI (MethA) %Hemmung) was 98% and the minimal effective concentration ([1]; Meth-A, 48 h, spontaneous proliferation, read-out: Konzentration, ab der die Spontanproliferation von MethA-Sarkomzellen signifikant unterdrückt ist) was > 10 µg/mL. For the same compound, the “höhere Konzentrationen, bei denen die spontane Proliferation von MethA beeinflußt wird” value [1, 3] was 10-30 fach, the Verträglichkeit (Mäusestamm MRL 1pr/1pr; MRL mice, once daily intraperitoneal) was “sehr guter Verträglichkeit” and the “Konzentration DNA spezifischer Antikörper” value (Mäusestamm MRL 1pr/1pr; [4]) was “erniedrigt”. For the same compound, the “Zahl spontan entstehender Lymphadenome” value (Mäusestamm MRL 1pr/1pr; [4]) was “erniedrigt”, the “Titer der Autoantikörper” value (Mäusestamm MRL 1pr/1pr; [5]) was “nimmt dosisabhängig ab” and the “Zahl der Lymphadenome” value (Mäusestamm MRL 1pr/1pr; [5]) was “nimmt dosisabhängig ab”. The “Tumorwachstum von Walker-Sarkoma 256” value (Walker-Sarkoma 256) was “Hemmung des Tumorwachstums”, the Leukozyten [2] was “Anstieg der Leukozyten” and the “Zahl der Antikörper bildenden Milzzellen” value [2] was “Anstieg der Zahl der Antikörper bildenden Milzzellen”. For the same compound, the “Proliferation von B-Lymphozyten” value (humane B-Lymphozyten) was “dosisabhängig hemmt”, the inhibition at 0.1 µg/mL (humane B-Lymphozyten; [6]) was 13% and the inhibition at 0.3 µg/mL (humane B-Lymphozyten; [6]) was 24%. It also gave an inhibition at 1 µg/mL (humane B-Lymphozyten; [6]) of 62%, an inhibition at 3 µg/mL (humane B-Lymphozyten; [6]) of 85% and an inhibition at 10 µg/mL (humane B-Lymphozyten; [6]) of 90%. It also gave an inhibition at 30 µg/mL (humane B-Lymphozyten; [6]) of 89%, an inhibition at 100 µg/mL (humane B-Lymphozyten; [6]) of 90% and a minimal effective concentration (humane B-Lymphozyten; Homo sapiens, Lymphocyte, 140 h, read-out: Konzentration, bei der die BCGF-induzierte B-Zellproliferation signifikant und spezifisch supprimiert wird) of 1 µg/mL. The “BCGF (humane B-Lym-phozyten) ^3H-TdR cpm (n=6) x̄” value (shortened to “BCGF”) (humane B-Lymphozyten; Imexon 0.1 µg/ml, 140 h) was 4847 cpm, the “BCGF” value (humane B-Lymphozyten; Imexon 0.3 µg/ml, 140 h) was 4201 cpm and the “BCGF” value (humane B-Lymphozyten; Imexon 1 µg/ml, 140 h) was 2096 cpm. The “BCGF” value (humane B-Lymphozyten; Imexon 3 µg/ml, 140 h) was 831 cpm, the “BCGF” value (humane B-Lymphozyten; Imexon 10 µg/ml, 140 h) was 574 cpm and the “BCGF” value (humane B-Lymphozyten; Imexon 30 µg/ml, 140 h) was 617 cpm. The “BCGF” value (humane B-Lymphozyten; Imexon 100 µg/ml, 140 h) was 562 cpm, the “LTT (Splenozyten, ConA) ^3H-TdR cpm (n=6) x̄” value (Milzzellen; Imexon 0.1 µg/ml, 48 h) was 109717 cpm and the “LTT (Splenozyten, ConA) ^3H-TdR cpm (n=6) x̄” value (Milzzellen; Imexon 0.3 µg/ml, 48 h) was 134032 cpm. For the same compound, the “LTT (Splenozyten, ConA) ^3H-TdR cpm (n=6) x̄” value (Milzzellen; Imexon 1 µg/ml, 48 h) was 119120 cpm, the “LTT (Splenozyten, ConA) ^3H-TdR cpm (n=6) x̄” value (Milzzellen; Imexon 3 µg/ml, 48 h) was 118487 cpm and the “LTT (Splenozyten, ConA) ^3H-TdR cpm (n=6) x̄” value (Milzzellen; Imexon 10 µg/ml, 48 h) was 24895 cpm. The “LTT (Splenozyten, ConA) ^3H-TdR cpm (n=6) x̄” value (Milzzellen; Imexon 30 µg/ml, 48 h) was 2509 cpm, the “LTT (Splenozyten, ConA) ^3H-TdR cpm (n=6) x̄” value (Milzzellen; Imexon 100 µg/ml, 48 h) was 903 cpm and the inhibition at 0.1 µg/mL (Milzzellen; Splenocyte, 48 h, Imexon 0.1 µg/ml, read-out: LTT (Splenozyten, ConA) %Hemmung) was 0%. For the same compound, the inhibition at 0.3 µg/mL (Milzzellen; Splenocyte, 48 h, Imexon 0.3 µg/ml, read-out: LTT (Splenozyten, ConA) %Hemmung) was -22%, the inhibition at 1 µg/mL (Milzzellen; Splenocyte, 48 h, Imexon 1 µg/ml, read-out: LTT (Splenozyten, ConA) %Hemmung) was -8% and the inhibition at 3 µg/mL (Milzzellen; Splenocyte, 48 h, Imexon 3 µg/ml, read-out: LTT (Splenozyten, ConA) %Hemmung) was -8%. It also gave an inhibition at 10 µg/mL (Milzzellen; Splenocyte, 48 h, Imexon 10 µg/ml, ** p < 0.001, read-out: LTT (Splenozyten, ConA) %Hemmung) of 77%, an inhibition at 30 µg/mL (Milzzellen; Splenocyte, 48 h, Imexon 30 µg/ml, ** p < 0.001, read-out: LTT (Splenozyten, ConA) %Hemmung) of 98% and an inhibition at 100 µg/mL (Milzzellen; Splenocyte, 48 h, Imexon 100 µg/ml, ** p < 0.001, read-out: LTT (Splenozyten, ConA) %Hemmung) of 99%. For the same compound, the minimal effective concentration (Milzzellen; Splenocyte, 48 h, induced by ConA, read-out: Konzentrationen, bei denen die Lymphozytenproliferation signifikant gehemmt wird) was > 10 µg/mL, the “höhere Konzentrationen, bei denen die ConA-induzierte Lymphozytenproliferation beeinflußt wird” value (Milzzellen; [3]) was 10-30 fach and the inhibition at 0.1 µg/mL (humaner Lymphozyten; Homo sapiens, Lymphocyte, Imexon 0.1 µg/ml, read-out: LTT (Splenozyten, PHA) %Hemmung) was 5%. The inhibition at 0.3 µg/mL (humaner Lymphozyten; Homo sapiens, Lymphocyte, Imexon 0.3 µg/ml, read-out: LTT (Splenozyten, PHA) %Hemmung) was -3%, the inhibition at 1 µg/mL (humaner Lymphozyten; Homo sapiens, Lymphocyte, Imexon 1 µg/ml, read-out: LTT (Splenozyten, PHA) %Hemmung) was -11% and the inhibition at 3 µg/mL (humaner Lymphozyten; Homo sapiens, Lymphocyte, Imexon 3 µg/ml, read-out: LTT (Splenozyten, PHA) %Hemmung) was 19%. For the same compound, the inhibition at 10 µg/mL (humaner Lymphozyten; Homo sapiens, Lymphocyte, Imexon 10 µg/ml, ** p < 0.001, read-out: LTT (Splenozyten, PHA) %Hemmung) was 89%, the inhibition at 30 µg/mL (humaner Lymphozyten; Homo sapiens, Lymphocyte, Imexon 30 µg/ml, ** p < 0.001, read-out: LTT (Splenozyten, PHA) %Hemmung) was 99% and the inhibition at 100 µg/mL (humaner Lymphozyten; Homo sapiens, Lymphocyte, Imexon 100 µg/ml, ** p < 0.001, read-out: LTT (Splenozyten, PHA) %Hemmung) was 99%. For the same compound, the minimal effective concentration (humaner Lymphozyten; Homo sapiens, Lymphocyte, induced by PHA, read-out: Konzentrationen, bei denen die Lymphozytenproliferation signifikant gehemmt wird) was > 10 µg/mL, the “LTT (Splenozyten, PHA) ^3H-TdR cpm (n=6) x̄” value (humaner Lymphozyten; Imexon 0.1 µg/ml) was 41849 cpm and the “LTT (Splenozyten, PHA) ^3H-TdR cpm (n=6) x̄” value (humaner Lymphozyten; Imexon 0.3 µg/ml) was 45542 cpm. For the same compound, the “LTT (Splenozyten, PHA) ^3H-TdR cpm (n=6) x̄” value (humaner Lymphozyten; Imexon 1 µg/ml) was 49348 cpm, the “LTT (Splenozyten, PHA) ^3H-TdR cpm (n=6) x̄” value (humaner Lymphozyten; Imexon 3 µg/ml) was 35850 cpm and the “LTT (Splenozyten, PHA) ^3H-TdR cpm (n=6) x̄” value (humaner Lymphozyten; Imexon 10 µg/ml) was 4724 cpm. For the same compound, the “LTT (Splenozyten, PHA) ^3H-TdR cpm (n=6) x̄” value (humaner Lymphozyten; Imexon 30 µg/ml) was 573 cpm, the “LTT (Splenozyten, PHA) ^3H-TdR cpm (n=6) x̄” value (humaner Lymphozyten; Imexon 100 µg/ml) was 585 cpm and the “höhere Konzentrationen, bei denen die PHA-induzierte Lymphozytenproliferation beeinflußt wird” value (humaner Lymphozyten; [3]) was 10-30 fach.
